Here are results for 4 compounds from ChEMBL document CHEMBL3227990, “Aminotetralins as narcotic antagonists. Synthesis and opiate-related activity of 1-phenyl-2-aminotetralin derivatives” (J Med Chem, 1979).

For data set [1], the species on record is Mus musculus. In words: Toxicity in mouse assessed as convulsant activity. It counts as organism-based. Particulars: in vivo.
Data set [2] is filed under the species Mus musculus. Briefly: Inhibition of morphine-induced analgesia in mouse assessed as dose required for 50% antagonism of analgesia by tail flick test. The class given is functional. For orientation: Hot-plate and tail-flick tests time the reaction to a heat stimulus.
For data set [3], the species on record is Mus musculus. In words: Analgesic activity in mouse by hot plate test. The class given is functional.

Molecules are shown by their SMILES.

As for `CN(CC1CC1)[C@@H]1CCc2ccccc2[C@@]1(O)c1ccccc1.Cl`, the Activity entry in data set [1] is reported as “Toxic”. For the same compound, in data set [2], the AD50 entry is “>=30 mg kg-1”. For the compound `CO[C@@]1(c2ccccc2)c2ccccc2CC[C@H]1N(C)CC1CC1.Cl`, in data set [3], the ED50 was at least 50 mg/kg. In data set [2], the AD50 stood at 33.5 mg/kg. The corresponding values for `CCC(=O)O[C@@]1(c2ccccc2)c2ccccc2CC[C@H]1N(C)CC1CC1.Cl` are 17.8 mg/kg and “>=100 mg kg-1”. As to `CN1CC[C@]23c4c5ccc(O)c4O[C@H]2[C@@H](O)C=C[C@H]3[C@H]1C5` [MORPHINE], the ED50 in data set [3] was 1.1 mg/kg.

As a reminder, the ED50 is the dose that gives a 50% effect, or the effect in half of the subjects.
